Results on two compounds are retold here after US20060167106A1, “Compounds acting at the centrosome” (priority 2004, published 2006).

One assay has as its system CHO-α-tubulin-YFP cells. The assay can be described thus: α-tubulin-YFP localization in CHO-α-tubulin-YFP cells (fluorescence imaging). It is filed as cell-based, Chinese hamster. The note with it: for accumulation of tubulin in the centrosomes (overall statement): CHO-tubulin-YFP cells, concentration and time not given; for accumulation of tubulin at the centrosomes versus in the nucleus (overall statement): cells treated, concentration not given.

In the next assay the test system is 26S proteasome. The assay can be described thus: Proteasome-sensor cells (HEK-293, GFP chimera), fluorescence imaging. Format: cell-based. The note with it: for accumulation of the GFP-based proteasome substrate at the center of the colonies: Compound 1 500 nM 20-40 hours, Velcade 50 or 500 nM 20 hours; for accumulation of GFP-labeled proteasome-targeting chimera protein, periphery of colony relative to center: HEK-293 colony, 500 nM; for proteasome inhibition activity in cell-based assays (overall statement): live proteasome-sensor cells. An excerpt:
Specifically, the proteasome-sensor cells are HEK-293 cells stably transfected with a vector (proteasome-sensor vector) that encodes naturally-occurring reef coral Zoanthus sp. green fluorescent protein (GFP) fused to a specific degradation motif that targets the fusion protein for removal by the 26S proteasome. The background fluorescence observed in normal cells with active proteasomes is low. When proteasomes are inhibited, the fluorescent protein quickly accumulates. […] Millennium Pharmaceuticals, Inc., Cambridge, Mass.). […] Velcade (Millennium Pharmaceuticals Inc.) was used as a positive control in this assay (at 5 nM, 50 nM, 500 nM or 5 μM). Velcade stock solution was prepared according to the manufacturer's instructions. GFP fluorescence of the cells was imaged at various time points using a standard filter for FITC with the Nikon TE300 microscope/digital imaging system described herein.

For assay [1], the system named is bovine brain microtubule-associated protein (MAP)-rich tubulin. The assay can be described thus: MAP-Rich Tubulin Polymerization Assay. It is filed as biochemical. Conditions: 0.5 μM Compound 1 alone or with 3 μM Taxol. As for the experimental part: In vitro tubulin polymerization assays were repeated in the presence of microtubule-associated proteins (MAPs). Lyophilized bovine brain microtubule-associated protein (MAP)-rich tubulin and PEM buffer (80 mM Na-PIPES (pH 6.9), 1 mM MgCl2, 1 mM EGTA) were purchased from Cytoskeleton (Denver, Colo.). […] Absorbance at 340 nm was measured every minute for 60 minutes at 37° C. using a Perkin Elmer HTS 7000 spectrophotometer.

The next assay deals with HeLa cells. As to the kind of experiment: Oregon Green 488-Taxol localization in HeLa cells. Format: cell-based. The note with it: 0.5 μM Compound 1. As for the experimental part:
A fluorescent compound, Oregon Green 488-Taxol (Molecular Probes/Invitrogen), was utilized to determine the distribution of Taxol in CHO cells (FIG. 33). In addition, the targeting of fluorescent Taxol to centrosomes was examined in Compound 1-treated cells (FIG. 34). Non-transfected wild-type CHO cells and HeLa cells were cultured in 2-well chambered cover-slips for 24-48 hours before treatment. Oregon Green 488-Taxol stock solution was made with DMSO. […] Oregon Green 488-Taxol fluorescence in living cells or fixed cells was imaged using a standard filter for FITC with the Nikon TE300 microscope/digital imaging system.

The test system of assay [2] is U937 (histiocytic lymphoma). The assay can be described thus: Viability and cell growth of U937 cells. Format: cell-based. The note with it: for Total cells (×10^6): U937, 36 hour treatment. As for the experimental part: The viability and cell growth of two lymphoma cell lines, CRL-2261 (non-Hodgkin's lymphoma) and U937 (histiocytic lymphoma), were assayed following treatment with Compound 1 for 36-48 hours. Viability of the cells was determined using a kit from Molecular Probes (Eugene, Oreg.) that labels live cells green (calcein AM) and dead cells red (ethidium homodimer) according to manufacturer's instructions. Fluorescence of calcein and ethidium homodimer in cells was imaged using standard filters for FITC and Texas Red, respectively, with the Nikon TE300 microscope/digital imaging system.

Structures are written as SMILES. Entries after “also recorded” stand apart in the source; their conditions may differ.

`CN(NC(=O)CC(=O)NN(C)C(=S)c1ccccc1)C(=S)c1ccccc1` [Compound 1]: the “accumulation of α-tubulin-YFP at centrosomes” value was “accumulation of α-tubulin-YFP at centrosomes; also recorded: induced accumulation of tubulin at centrosomes within 8 hours” in the assay with CHO-α-tubulin-YFP cells (CHO cells, 50 nM, 8 hours); “accumulation of α-tubulin-YFP at centrosomes” in the assay on CHO-α-tubulin-YFP cells (CHO cells, 50 nM, 20 hours); “accumulation of tubulin at centrosomes could be observed; also recorded: accumulation of α-tubulin-YFP at centrosomes” in the assay on CHO-α-tubulin-YFP cells (CHO cells, 100 nM, 4 hours); “accumulation of α-tubulin-YFP at centrosomes” with CHO-α-tubulin-YFP cells (CHO cells, 500 nM, 4 hours); “accumulation of α-tubulin-YFP at centrosomes” in the assay with CHO-α-tubulin-YFP cells (CHO cells, 500 nM, 20 hours). The “accumulation of α-tubulin-YFP at the centrosomes” value with CHO-α-tubulin-YFP cells (CHO cells, 0.5 μM, 5 hours) is “accumulation of α-tubulin-YFP at the centrosomes and perinuclear regions”; with CHO-α-tubulin-YFP cells (CHO cells, 0.5 μM, 11 hours) it was “accumulation of α-tubulin-YFP at the centrosomes; also recorded: more frequent and greater accumulation of tubulin at the centrosome”. Besides, in the assay on CHO-α-tubulin-YFP cells (CHO cells, 0.5 μM, 24 hours), the “accumulation of tubulin-YFP at the centrosomes” value was “accumulation of tubulin-YFP at the centrosomes”. Moreover, in the assay with CHO-α-tubulin-YFP cells (CHO cells, Compound 1 alone (0.5 μM)), the “first sign of tubulin accumulation at the centrosomes, time after treatment” value is 5 h. The “accumulation of tubulin in the centrosomes (overall statement)” value in the assay with CHO-α-tubulin-YFP cells was “time-dependent accumulation of α-tubulin-YFP at the centrosomes; also recorded: caused an accumulation of tubulin in the centrosomes”. Also, the “accumulation of tubulin at the centrosomes versus in the nucleus (overall statement)” value with CHO-α-tubulin-YFP cells was “induced accumulation of tubulin only at the centrosomes; also recorded: not observed”. Also, the “accumulation of the GFP-based proteasome substrate at the center of the colonies” value in the assay on 26S proteasome (FIG. 14) was “did not cause significant accumulation”. The “accumulation of the GFP-based proteasome substrate at the periphery of the colonies” value in the assay with 26S proteasome (FIG. 14, Compound 1 500 nM, 20-40 hours) is given as “significant accumulation of the GFP-based proteasome substrate”. In addition, the “accumulation of proteasome-sensor protein in cells” value (shortened to “accumulation … in cells”) with 26S proteasome (HEK-293, 1 nM, 20 hours) is “accumulation of proteasome-sensor protein in cells”; in the assay on 26S proteasome (HEK-293, 5 nM, 20 hours), “accumulation of proteasome-sensor protein in cells”; with 26S proteasome (HEK-293, 10 nM, 20 hours), “accumulation of proteasome-sensor protein in cells”; in the assay with 26S proteasome (HEK-293, 50 nM, 20 hours) it was “induced an increase of the GFP-based proteasome substrate in the cytoplasm in some scattered cells; also recorded: accumulation of proteasome-sensor protein in cells”; with 26S proteasome (HEK-293, 100 nM, 20 hours), “significantly increased the GFP signal in the cytosol; also recorded: accumulation of proteasome-sensor protein in cells”; in the assay with 26S proteasome (HEK-293, 0.5 μM, 24 hours), “accumulation of proteasome-sensor protein in cells”. For the same compound, the “accumulation … in cells” value with 26S proteasome (HEK-293, 500 nM, 20 hours) was “accumulation of proteasome-sensor protein in cells”. Besides, the “accumulation of GFP-labeled proteasome-targeting chimera protein, periphery of colony relative to center” value in the assay with 26S proteasome (20 hours) and with 26S proteasome (40 hours) was “stronger accumulation at the periphery of the colony” each time. The “distribution of GFP-labeled proteasome-targeting chimera protein” value in the assay with 26S proteasome (HEK-293 proteasome-sensor cell, 5 μM, 24 hours) was “general, broad distribution of GFP-labeled proteasome-targeting chimera protein in both the cytosol and nucleus”. The “proteasome inhibition activity in cell-based assays (overall statement)” value is on record as “weak-to-moderate proteasome inhibitory effect in live cells; also recorded: moderate proteasome inhibition activity; also recorded: weak/moderate proteasome inhibitor” with 26S proteasome and “detectable level of proteasome inhibition activity” with 26S proteasome (listed as GMP-grade Compound 1). The “influence on MAP-enriched tubulin polymerization” value in assay [1] is listed as “does not influence MAP-enriched tubulin polymerization”. The “effect on the accumulation of Taxol (Oregon Green 488-Taxol) at centrosomes” value in the assay on HeLa cells is “no effect on the accumulation of Taxol at centrosomes”. Moreover, the “cell death of U937 cells” value in assay [2] (36 hours) is “less affected”. Further, the “Total cells (×10^6)” value is reported as 2.13 ×10^6 in assay [2] (500 nM) and 2.40 ×10^6 in assay [2] (5000 nM).
Turning to `CC(C)C[C@H](NC(=O)[C@H](Cc1ccccc1)NC(=O)c1cnccn1)B(O)O` [Velcade], the “accumulation of α-tubulin-YFP at centrosomes” value with CHO-α-tubulin-YFP cells (CHO cells, 50 nM, 20 hours) was “accumulation of α-tubulin-YFP at centrosomes”; in the assay with CHO-α-tubulin-YFP cells (CHO cells, 500 nM, 4 hours), “lack of accumulation of tubulin-YFP at the centrosomes”; in the assay on CHO-α-tubulin-YFP cells (CHO cells, 500 nM, 8 hours), “accumulation of α-tubulin-YFP at centrosomes”; in the assay with CHO-α-tubulin-YFP cells (CHO cells, 500 nM, 20 hours), “accumulation of α-tubulin-YFP at centrosomes”. The “accumulation of α-tubulin-YFP in the nucleus” value with CHO-α-tubulin-YFP cells (CHO cells, 50 nM, 20 hours) is “accumulation of α-tubulin-YFP in the nucleus”; in the assay with CHO-α-tubulin-YFP cells (CHO cells, 500 nM, 8 hours), “accumulation α-tubulin-YFP in the nucleus”; in the assay on CHO-α-tubulin-YFP cells (CHO cells, 500 nM, 20 hours), “accumulation of α-tubulin-YFP in the nucleus”. Also, the “accumulation of tubulin in the centrosomes (overall statement)” value with CHO-α-tubulin-YFP cells was “required a higher concentration (500 nM; FIG. 25D) and/or a longer time period”. The “accumulation of tubulin at the centrosomes versus in the nucleus (overall statement)” value with CHO-α-tubulin-YFP cells was “both accumulation of tubulin at the centrosomes and in the nucleus; also recorded: induced accumulation of tubulin in the nucleus”. For the same compound, in the assay on 26S proteasome (FIG. 14), the “accumulation of the GFP-based proteasome substrate at the center of the colonies” value was “greater accumulation of the GFP-based proteasome substrate in cells at the colony center than did Compound 1”. Moreover, the “accumulation … in cells” value in the assay on 26S proteasome (HEK-293, 1 nM, 20 hours) is listed as “accumulation of proteasome-sensor protein in cells”; in the assay with 26S proteasome (HEK-293, 5 nM, 20 hours) it was “significantly induced an increase of GFP signal; also recorded: accumulation of proteasome-sensor protein in cells”; in the assay on 26S proteasome (HEK-293, 10 nM, 20 hours), “accumulation of proteasome-sensor protein in cells”; in the assay with 26S proteasome (HEK-293, 50 nM, 20 hours), “accumulation of proteasome-sensor protein in cells”; with 26S proteasome (HEK-293, 100 nM, 20 hours) it was “accumulation of proteasome-sensor protein in cells”; in the assay with 26S proteasome (HEK-293, 100 nM, 24 hours) it was “accumulation of proteasome-sensor protein in cells”. Further, the “accumulation … in cells” value in the assay with 26S proteasome (HEK-293, 500 nM, 20 hours) is given as “accumulation of proteasome-sensor protein in cells”.
